Results on 13 molecules are retold here after PMC9511493, “2-(Fluoromethoxy)-4′-(S-methanesulfonimidoyl)-1,1′-biphenyl (UCM-1306), an Orally Bioavailable Positive Allosteric Modulator of the Human Dopamine D1 Receptor for Parkinson’s Disease” (Journal of Medicinal Chemistry, 2022).

Data set [1] concerns the target T1, human D1R (Homo sapiens, UniProt P21728).
T1 construct: endogenously expressed human D1R in the SK-N-MC cell line (ATCC); host or cells: SK-N-MC human neuroblastoma cells
Nature of the data set: potentiator-mode cAMP assay (HTRF) in SK-N-MC neuroblastoma cells endogenously expressing human D1R. The data set is classed as cell-based. The settings on record: for Emax: SK-N-MC, read-out: % maximum increase (efficacy over DA EC70); for EC50: potency of the compound at the DA EC70 concentration. On the procedure: An in-house chemical library of 250 compounds was screened using an in vitro assay measuring accumulation of cAMP in a human neuroblastoma SK-N-MC cell line stably expressing physiological levels of the D1R but not the D5R.[41] To assess allosteric modulation of the D1R, cells were treated with a fixed concentration of the test compounds (10 μM) for 15 min and then co-incubated with increasing concentrations of the endogenous agonist DA. The cAMP concentration was quantified by homogeneous time-resolved fluorescence energy transfer (HTRF) and the effect of each compound on the DA concentration–response curve was measured.
The PAM efficacy was measured as the percentage of increase over DA EC70 and the potency as the EC50 observed in the concentration–response curve.
Functional studies at human D1 and D2 receptors were carried out in endogenously expressed human D1R in the SK-N-MC cell line (ATCC), and recombinant human D2R stably transfected in an in-house CHO cell line. Cells were thawed and seeded into a black 96-well plate (1 × 10^4 cells/well for SK-N-MC cell line, 5 × 10^3 cells/well for CHO cell line) in Opti-MEM containing 500 μM IBMX (3-isobutyl-1-methylxanthine).
In general terms: Cyclic AMP is a second messenger, typically raised through Gs and lowered through Gi signalling.

Data set [2] addresses T1, human D1R. Described as above. The data set is classed as cell-based. The settings on record: no DA.
For data set [3], the system named is reserpinized C57BL/6 mice. Nature of the data set: locomotor activity in reserpinized mice. The data set is classed as in vivo, mouse. The settings on record: reserpine 2.5 mg/kg sc; 26 30 mg/kg po; L-DOPA 100 or 400 mg/kg ip. On the procedure: The study was carried out in male C57BL/6 wild-type (22–25 g) mice that were acclimatized for 5 days. Animals were randomized based on body weight into six groups (G1 to G6), ten animals per group (n = 10), being group G1 the naïve control group. Animals were fed with standard diet ad libitum. Animals were dosed with subcutaneous administration of reserpine (2.5 mg/kg in DMSO/saline) and after 20 h they were treated with a vehicle (10 mL/kg, po), compound 26 (30 mg/kg, po), L-DOPA (100 or 400 mg/kg, ip) + carbidopa (100 mg/kg, ip) and/or their combination, as indicated in Figure 7. The vehicle employed for compound 26 administration was 5% NMP + 5% solutol HS-15 + 90% normal saline. L-DOPA and carbidopa were administered 30 min prior to start of locomotor activity recording. Compound 26 was administered and 15 min later, mice were placed in the locomotor activity cage to measure the locomotor activity for 60 min (total distance travelled) using ALL Maze version 0.5 automated software enabled with video tracking system. After the activity sessions, raw data were reduced using ALL Maze 5.0 software and Microsoft Excel. Statistical analysis was done with GraphPad Prism-5 using one way ANOVA followed by Dunnett’s test/Tukey’s post hoc test and/or two-way ANOVA followed by Bonferroni post hoc test. Data were considered statistically significant, if P value was less than 0.05.

The mark [4] stands for this setting: concentration–response curve of the compound over DA EC70.

Structures are written as SMILES.

T1 sequence (P21728 whole entry): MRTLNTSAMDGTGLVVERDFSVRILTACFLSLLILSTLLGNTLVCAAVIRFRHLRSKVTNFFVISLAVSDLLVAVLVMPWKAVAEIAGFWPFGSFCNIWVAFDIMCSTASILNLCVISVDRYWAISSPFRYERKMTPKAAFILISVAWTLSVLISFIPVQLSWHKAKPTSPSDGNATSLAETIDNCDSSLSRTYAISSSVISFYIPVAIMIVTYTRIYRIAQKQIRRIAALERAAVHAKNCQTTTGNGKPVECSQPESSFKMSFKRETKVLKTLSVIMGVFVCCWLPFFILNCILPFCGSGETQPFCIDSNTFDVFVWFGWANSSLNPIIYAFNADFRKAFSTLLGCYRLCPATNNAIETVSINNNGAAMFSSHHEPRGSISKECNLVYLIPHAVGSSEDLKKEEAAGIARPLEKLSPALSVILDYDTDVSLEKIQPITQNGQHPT

As usually defined, the EC50 is the concentration needed to bring the measured effect to its halfway point. Consider `NS(=O)(=O)c1ccc(-c2ccccc2OCF)cc1` [Compound 18], for which the Emax on human D1R [1] (setting [4]) came to 42 ± 7%. Also, the EC50 on human D1R [1] turned out to be 4.93 ± 1.2 µM.
For `O=Cc1ccc(-c2cccc(OC(F)F)c2)cc1` [Compound 6], in that order: 35 ± 7% and 10.8 ± 1.6 µM.
The corresponding values for `CN=S(C)(=O)c1ccc(-c2ccccc2OCF)cc1` (stereo not shown) [Compound 27] are 33 ± 3% and 15.9 ± 2.7 µM.
For the molecule `CCS(=N)(=O)c1ccc(-c2ccccc2OCF)cc1` (stereo not shown) [Compound 25], the Emax on human D1R [1] (setting [4]) was found to be 50 ± 7%. In addition, the EC50 at human D1R [1] worked out at 30.2 ± 2.4 µM.
With `O=Cc1ccc(-c2ccc(OC(F)F)cc2)cc1` [Compound 5], at human D1R [1] (setting [4]), the Emax was 37 ± 5%. The 50% effective concentration (EC50) on human D1R [1] was found to be 2.3 ± 0.4 µM.
As to `C[S@](=N)(=O)c1ccc(-c2ccccc2OCF)cc1` [(S)-26, (S)-2-(Fluoromethoxy)-4′-(S-methanesulfonimidoyl)-1,1′-biphenyl], the “cAMP response in the absence of DA (agonist activity)” value on human D1R [2] is reported as “no agonist activity”.
In the case of `C[S+]([O-])c1ccc(-c2ccccc2OCF)cc1` (stereo not shown) [Compound 23], the Emax on human D1R [1] (setting [4]) turned out to be 73 ± 6%. Besides, the EC50 on human D1R [1] was 21.7 ± 5.8 µM.
On to `O=Cc1ccc(-c2ccccc2OC(F)F)cc1` [Compound 7], for which, on human D1R [1] (setting [4]), the Emax was determined as 62% and the “% maximum increase (efficacy over DA EC70)” value was 62 ± 10%. In addition, at human D1R [1], the EC50 turned out to be 18.5 ± 2.7 µM.
For the molecule `C[S@@](=N)(=O)c1ccc(-c2ccccc2OCF)cc1` [Compound (R)-26, (R)-2-(Fluoromethoxy)-4′-(S-methanesulfonimidoyl)-1,1′-biphenyl], the “cAMP response in the absence of DA (agonist activity)” value on human D1R [2] is on record as “no agonist activity”.
As to `CNS(=O)(=O)c1ccc(-c2ccccc2OCF)cc1` [Compound 19], on human D1R [1] (setting [4]), the Emax was determined as 28 ± 8%. Besides, the EC50 on human D1R [1] was determined as 1.26 ± 0.7 µM.
The melting point is the temperature, or range, at which the solid turns liquid. As for `O=Cc1ccc(-c2ccccc2SC(F)F)cc1` [Compound 10, 2′-[(Difluoromethyl)sulfanyl][1,1′-biphenyl]-4-carbaldehyde], the melting point lay in the range of 46 to 47 °C. Moreover, the Emax on human D1R [1] (setting [4]) was found to be 101 ± 10%. Further, the EC50 at human D1R [1] worked out at 21.8 ± 3.6 µM.
Turning to `CS(=O)(=O)c1ccc(-c2ccccc2OCF)cc1` [Compound 20], on human D1R [1] (setting [4]), the Emax came to 30 ± 8%. Also, on human D1R [1], the EC50 amounted to 13.1 ± 2.8 µM.
Consider `N[C@@H](Cc1ccc(O)c(O)c1)C(=O)O` [L-DOPA, reference compound], for which the “recovery of decreased locomotor activity, substance alone” value in data set [3] is reported as “small recovery of decreased locomotor activity”.
